Assay results: PMC12276029, “Structure−Activity Relationships of New 1‐Aryl‐1H‐Indole Derivatives as SARS‐CoV‐2 Nsp13 Inhibitors” (Chemmedchem, 2025)
Read-outs that look alike come from different tables or passages of the source.

Experiments:
[1] = in vitro; conditions: African green monkey
[2] = test system: Vero cells; set-up: method as in PMID 37562607; conditions: cited from earlier work
[3] = test system: SARS-CoV-2; set-up: method as in PMID 37562607; conditions: cited from earlier work; for EC50: read-out: EC50 SARS-CoV-2 replication
[4] = molecular target: T1, SARS-CoV-2 nsp13 (Severe acute respiratory syndrome coronavirus 2, UniProt P0DTD1); set-up: method as in PMID 37562607; conditions: SARS-CoV-2 nsp13 unwinding; cited from earlier work
[5] = molecular target: T1, SARS-CoV-2 nsp13; set-up: method as in PMID 37562607; conditions: SARS-CoV-2 nsp13 ATPase; cited from earlier work
[6] = test system: HCoV229E; set-up: method as in PMID 37562607; conditions: cited from earlier work
[7] = test system: MERS-CoV; conditions: cited from earlier work
[8] = molecular target: T1, SARS-CoV-2 nsp13; assay: SARS-CoV-2 nsp13 unwinding-associated activity assay; type: biochemical; conditions: for IC50: SARS-CoV-2 nsp13-associated unwinding activity, means ± SD from two experiments in triplicate, read-out: Activity in enzyme assay IC50 Unwinding BSA-TCEP; for selectivity for unwinding over ATPase: IC50 ATPase vs IC50 unwinding; for remaining activity at 30 µM: given in brackets beside IC50 >30 μM, read-out: Percentage of enzymatic residual activity, unwinding
[9] = molecular target: T1, SARS-CoV-2 nsp13; assay: SARS-CoV-2 nsp13 ATPase-associated activity assay; type: biochemical; conditions: for IC50 / Activity in enzyme assay IC50 ATPase BSA-TCEP: SARS-CoV-2 nsp13-associated ATPase activity, means ± SD from two experiments in triplicate; for IC50: read-out: Activity in enzyme assay IC50 ATPase BSA-TCEP; for remaining activity at 30 µM: given in brackets beside IC50 >30 μM, read-out: Percentage of enzymatic residual activity, ATPase
[10] = test system: SARS-CoV-2; assay: SARS-CoV-2 plaque assay in infected Vero E6 cells; type: cell-based; conditions: for EC50: Severe acute respiratory syndrome coronavirus 2, plaque assay, means ± SD, n = 9, read-out: EC50, concentration reducing SARS-CoV-2 replication in Vero cells by 50%
[11] = molecular target: T1, SARS-CoV-2 nsp13; assay: Mode-of-action assay (incubation-dependent potency, covalent/noncovalent); type: biochemical; conditions: for IC50: read-out: IC50 at time-point
[12] = test system: SARS-CoV-2; conditions: read-out: EC50 antiviral activity; cited from earlier work
[13] = molecular target: T1, SARS-CoV-2 nsp13; conditions: read-out: IC50 vs unwinding; cited from earlier work

CC[C@@]1(O)C(=O)OCc2c1cc1n(c2=O)Cc2cc3ccccc3nc2-1 [Camptothecin, reference compound]
CC50 [1]: 11.1 ± 0.16 µM

CCOC(=O)/C(O)=C/C(=O)/C=C/c1cn(-c2ccc(F)cc2)c2ccccc12 [Compound 3]
CC50 [2]: > 264 µM
SI = CC50/EC50 [3]: >16
EC50 [3]: 16.1 ± 3.25 µM
IC50 [4]: 5.9 ± 0.3 µM
IC50 [5]: 13.6 ± 3.2 µM
activity range on HCoV229E [6]: low micromolar
activity range on MERS-CoV [7]: submicromolar

O=C(/C=C(\O)C(=O)O)/C=C/c1cn(-c2ccc(F)cc2)c2ccccc12 [Compound 4]
CC50 [2]: > 264 µM
EC50 [3]: 1.7 µM
IC50 [4]: 4.7 µM
IC50 [5]: 8.2 µM
activity range on HCoV229E [6]: low micromolar
activity range on MERS-CoV [7]: submicromolar

COc1ccc(-n2cc(/C=C/C(=O)/C=C(\O)C(=O)O)c3ccccc32)cc1 [Compound 5a]
IC50 [8]: 2.83 ± 0.54 µM
IC50 [9]: 11.2 ± 1.37 µM

Cc1ccc(-n2cc(/C=C/C(=O)/C=C(\O)C(=O)O)c3ccccc32)cc1 [Compound 5b]
IC50 [8]: 11.7 ± 0.94 µM
IC50 [9]: 5.12 ± 0.38 µM

CC(C)c1ccc(-n2cc(/C=C/C(=O)/C=C(\O)C(=O)O)c3ccccc32)cc1 [Compound 5c]
selectivity for unwinding over ATPase [8]: 70 fold
IC50 [8]: 0.26 ± 0.01 µM
CC50 [1]: > 100 µM
SI = CC50/EC50 [10]: >47
EC50 [10]: 2.12 ± 0.67 µM
IC50 [9]: 8.43 ± 0.04 µM

O=C(/C=C(\O)C(=O)O)/C=C/c1cn(-c2ccccc2)c2ccccc12 [Compound 5d]
IC50 [8]: 11.8 ± 0.48 µM
IC50 [9]: 13.1 ± 0.37 µM

O=C(/C=C(\O)C(=O)O)/C=C/c1cn(-c2ccc(Cl)cc2)c2ccccc12 [Compound 5f]
IC50 [8]: 2.64 ± 0.61 µM
IC50 [9]: 20.95 ± 0.14 µM

N#Cc1ccc(-n2cc(/C=C/C(=O)/C=C(\O)C(=O)O)c3ccccc32)cc1 [Compound 5g]
IC50 [8]: 10 ± 2.07 µM
IC50 [9]: 13.6 ± 3.8 µM

O=C(/C=C(\O)C(=O)O)/C=C/c1cn(-c2ccc(C(F)(F)F)cc2)c2ccccc12 [Compound 5h]
selectivity for unwinding over ATPase [8]: 30 fold
IC50 [8]: 0.21 ± 0.11 µM
CC50 [1]: > 100 µM
SI = CC50/EC50 [10]: >21
EC50 [10]: 4.56 ± 1.86 µM
IC50 [9]: 14.2 ± 1.6 µM

CCOC(=O)/C(O)=C/C(=O)/C=C/c1cn(-c2ccc(OC)cc2)c2ccccc12 [Compound 6a]
IC50 [8]: 7.59 ± 1.5 µM
IC50 [9]: 10.4 ± 0.13 µM

CCOC(=O)/C(O)=C/C(=O)/C=C/c1cn(-c2ccc(C)cc2)c2ccccc12 [Compound 6b]
IC50 [8]: 13.9 ± 1.5 µM
IC50 [9]: 8.64 ± 0.77 µM

CCOC(=O)/C(O)=C/C(=O)/C=C/c1cn(-c2ccc(C(C)C)cc2)c2ccccc12 [Compound 6c]
IC50 [8]: 4.16 ± 0.44 µM
IC50 [9]: 13.5 ± 3.34 µM

CCOC(=O)/C(O)=C/C(=O)/C=C/c1cn(-c2ccccc2)c2ccccc12 [Compound 6d]
IC50 [8]: 3.77 ± 0.13 µM
IC50 [9]: 4.94 ± 0.21 µM

CCOC(=O)/C(O)=C/C(=O)/C=C/c1cn(-c2ccc(Cl)cc2)c2ccccc12 [Compound 6f]
IC50 [8]: 2.05 ± 0.03 µM
CC50 [1]: > 100 µM
SI = CC50/EC50 [10]: >12
EC50 [10]: 8 ± 2.19 µM
IC50 [9]: 3.39 ± 0.11 µM

CCOC(=O)/C(O)=C/C(=O)/C=C/c1cn(-c2ccc(C#N)cc2)c2ccccc12 [Compound 6g]
IC50 [8]: 6.26 ± 0.65 µM
CC50 [1]: > 100 µM
SI = CC50/EC50 [10]: >8
EC50 [10]: 11.8 ± 7.45 µM
IC50 [9]: 2.35 ± 0.4 µM

CCOC(=O)/C(O)=C/C(=O)/C=C/c1cn(-c2ccc(C(F)(F)F)cc2)c2ccccc12 [Compound 6h]
IC50 [8]: 3.11 ± 0.55 µM
IC50 ([11]; 1 min after the activation of the reaction): 0.3 µM
IC50 ([11]; 5 min after the activation of the reaction): 0.48 µM
IC50 ([11]; 10 min after the activation of the reaction): 0.79 µM
IC50 ([11]; 15 min after the activation of the reaction): 1.06 µM
IC50 ([11]; 20 min after the activation of the reaction): 1.31 µM
nature of the inhibition ([11]; from time-increased IC50 values): noncovalent
effect of extended preincubation of compound and enzyme on potency ([11]; preincubation +20 min and +50 min at room temperature): did not lead to increasing in inhibitory potency
CC50 [1]: > 100 µM
SI = CC50/EC50 [10]: >21
EC50 [10]: 4.69 ± 1.8 µM
IC50 [9]: 1.21 ± 0.16 µM

COc1ccc(-n2cc(C(=O)/C=C(\O)C(=O)O)c3ccccc32)cc1 [Compound 7a]
IC50 [8]: > 30 µM
remaining activity at 30 µM [8]: 63.9%
IC50 [9]: > 30 µM
remaining activity at 30 µM [9]: 68.7%

Cc1ccc(-n2cc(C(=O)/C=C(\O)C(=O)O)c3ccccc32)cc1 [Compound 7b]
IC50 [8]: 1.27 ± 0.29 µM
Activity in enzyme assay IC50 ATPase BSA-TCEP [9]: no activity
IC50 [9]: > 30 µM
remaining activity at 30 µM [9]: 70.8%

CC(C)c1ccc(-n2cc(C(=O)/C=C(\O)C(=O)O)c3ccccc32)cc1 [Compound 7c]
IC50 [8]: 0.7 ± 0.13 µM
CC50 [1]: > 100 µM
SI = CC50/EC50 [10]: >12
EC50 [10]: 8.1 ± 1.37 µM
Activity in enzyme assay IC50 ATPase BSA-TCEP [9]: no activity
IC50 [9]: > 30 µM
remaining activity at 30 µM [9]: 63.9%

O=C(O)/C(O)=C/C(=O)c1cn(-c2ccccc2)c2ccccc12 [Compound 7d]
IC50 [8]: > 30 µM
remaining activity at 30 µM [8]: 75.1%
IC50 [9]: > 30 µM
remaining activity at 30 µM [9]: 102%

O=C(O)/C(O)=C/C(=O)c1cn(-c2ccc(F)cc2)c2ccccc12 [Compound 7e]
IC50 [8]: 7.03 ± 1.94 µM
Activity in enzyme assay IC50 ATPase BSA-TCEP [9]: no activity
IC50 [9]: > 30 µM
remaining activity at 30 µM [9]: 99.3%

CCOC(=O)/C(O)=C/C(=O)c1cn(-c2ccc(OC)cc2)c2ccccc12 [Compound 8a]
IC50 [8]: 18.8 ± 0.22 µM
IC50 [9]: 19.06 ± 0.14 µM

CCOC(=O)/C(O)=C/C(=O)c1cn(-c2ccc(C)cc2)c2ccccc12 [Compound 8b]
IC50 [8]: 17.5 ± 1.37 µM
IC50 [9]: 18.6 ± 1.14 µM

CCOC(=O)/C(O)=C/C(=O)c1cn(-c2ccc(C(C)C)cc2)c2ccccc12 [Compound 8c]
IC50 [8]: 8.04 ± 2.1 µM
IC50 [9]: 15.7 ± 0.1 µM

CCOC(=O)/C(O)=C/C(=O)c1cn(-c2ccccc2)c2ccccc12 [Compound 8d]
IC50 [8]: 13.3 ± 3.45 µM
IC50 [9]: 11.3 ± 0.89 µM

CCOC(=O)/C(O)=C/C(=O)c1cn(-c2ccc(F)cc2)c2ccccc12 [Compound 8e]
IC50 [8]: 12.9 ± 0.59 µM
IC50 [9]: 16.4 ± 3.1 µM

C=CCn1c(S)nnc1CSc1ccccc1[N+](=O)[O-] [SSYA10‐001]
EC50 [12]: 81 µM
IC50 [13]: 7.5 µM

CC(C)=CCc1c(O)cc(O)c2c(=O)cc(-c3ccc(O)cc3)oc12 [licoflavone C]
EC50 [12]: > 100 µM
